Test results from patent publication US10221144B2, “Antibacterial compounds having broad spectrum of activity” (priority 2014, dated 2019).
Where a name gives a salt, the structure may show the parent alone. Read-outs that look alike come from different tables or passages of the source.

Columns and labels:
Format in all cases: biochemical
E. coli DNA gyrase = target: T1, E. coli DNA gyrase (Escherichia coli, UniProt P0AES4+P0AES6); test: DNA gyrase supercoiling assay (E. coli); conditions: for inhibition at 50 µM: conc. 50 μM
T1 construct: purchased Inspiralis, UK
Procedure, shortened: (§1)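 Relaxed pBR322 (0.5 μg) supercoiled by E. coli (2 U) or S. aureus (1 U) gyrase, 30 min at 37° C; compounds at single 200, 100 or 50 μM, duplicate. Supercoiled band quantified on ethidium-stained agarose gel, expressed as % inhibition vs DMSO control; IC50 by two-parameter exponential decay fit.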

E. coli Topoisomerase IV = target: T2, E. coli Topoisomerase IV (Escherichia coli, UniProt P0AFI2+P20083); test: Topoisomerase IV decatenation assay (E. coli); conditions: for inhibition at 50 µM: conc. 50 μM
T2 construct: purchased Inspiralis, UK
Procedure, shortened: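 Topo IV decatenation of kDNA (200 ng) with 0.5 U enzyme in HEPES-KOH pH 7.6 buffer containing 1 mM ATP and Mg acetate, 30 min at 37 °C. Single-concentration screen (200, 100 or 50 μM) in duplicate. Decatenated minicircles resolved on agarose, ethidium-stained band intensity expressed as % inhibition versus vehicle; IC50 from exponential-decay curve fit.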

[1] = target: T3, S. aureus Topoisomerase IV (Staphylococcus aureus, UniProt P0C1S7+P0C1U9); test: Topoisomerase IV decatenation assay (S. aureus)
T3 construct: purchased Inspiralis, UK
Procedure: The above compounds were tested for the inhibition of the enzyme DNA gyrase in a gyrase supercoiling assay and for the inhibition of the enzyme topoisomerase IV in a decatenation assay, in both Gram positive and Gram negative bacteria, according to the following methods.
Both the assays were carried out according to a set-up method modified from the article to Blanche F, et al. “Differential Behaviors of Staphylococcus aureus and Escherichia coli Type II DNA Topoisomerases”, Antimicrob. Agents Chemother., 1996, Vol. 40, No. 12 p. 2714-2720.
The compounds were screened at single concentration (200, 100 or 50 μM), in duplicate.
S. aureus and E. coli Topoisomerase IV decatenation kits (Inspiralis, UK) were used. A master mix with a total volume sufficient for the number of reactions to perform was prepared with the following reagents: 5× assay buffer (50 mM HEPES-KOH (pH 7.6), 100 mM potassium glutamate, 10 mM magnesium acetate, 10 mM DTT, 1 mM ATP, 50 μg/ml albumin), kDNA substrate (200 ng/reaction), RNase-DNase free water. Aliquots of this mix were dispensed in each tube, then 10× compound stock solutions or vehicle control (DMSO), were added in each reaction tube.
Reaction was started with Topoisomerase IV enzyme (0.5 U/reaction) addition.
A sample added with an equal volume of dilution buffer was used as negative control (without enzyme).
The reaction tubes were gentle vortexed and incubated 30 minutes at 37° C. Each reaction was stopped by adding 30 μl of Stop Buffer and 30 μl of chloroform/isoamyl alcohol (24/1), briefly vortexed for 5-10 seconds and centrifuged at 20000×g for 2 minutes. Samples taken from the upper phase were loaded into 1% agarose gel and subjected to electrophoresis for 1 hour at 80V constant voltage in TAE (40 mM Tris-acetate, 2 mM EDTA).
Data acquisition and analysis. Due to the high molecular mass, kDNA could not enter an agarose gel under normal electrophoresis conditions, but remained in the wells. In the presence of Topo IV topoisomerase mini-circles (2.5 Kb) were released from kDNA by decatenation and were quickly and easily resolved in the gel at relatively high voltages.
Bands were visualized by ethidium bromide staining (dil 1:20000) for 30 minutes followed by destaining in distilled water for 10 minutes.
For single concentration screening assay, in order to evaluate the compounds activity on the enzymes, the bands of decatenated DNAs in the gel were photographed by a digital imaging system ImageQuant LAS 4000 (GE Healthcare) according to manufacturer's instructions.
The fluorescent intensity of each band was analyzed by ImageQuant TL software and it was expressed as volume (volume of the uncalibrated quantity of material in the image feature after subtraction of the background intensity by using rolling ball method).
Each band intensity was compared, as percentage, to vehicle sample band intensity, which served as positive control, on the same gel.
Inhibitory activity was expressed as percent of inhibition versus the positive control.
The supercoiled or decatenated DNA bands obtained as described in Example 1 were analysed as follows.
Bands were analyzed by gel documentation equipment (Syngene, Cambridge, UK) and quantitated using Syngene Gene Tools software. Raw gel data (fluorescent band volumes) collected from Syngene, GeneTools gel analysis software were converted to a percentage of the 100% control (the fully supercoiled or decatenated DNA band). […] The IC50 data were calculated by using the global curve fit non-linear regression tool by selecting the Single, 2 Parameter fit function from the Exponential Decay equation category.

S. aureus DNA gyrase = target: T4, S. aureus DNA gyrase (Staphylococcus aureus, UniProt P0A0K8+P20831); test: DNA gyrase supercoiling assay (S. aureus); conditions: for inhibition at 50 µM: conc. 50 μM
T4 construct: purchased Inspiralis, UK
Procedure, shortened: as §1

[2] = E. coli, n/a = not active, read-out: % inhibition Topo IV
[3] = S. aureus, conc. 50 μM, n/a = not active, read-out: % inhibition Topo IV
[4] = S. aureus, concentration-response curve, eight half-log concentrations 0.1 to 300 μM, read-out: IC50 Topo IV

T3 sequence (P0C1S7 whole entry): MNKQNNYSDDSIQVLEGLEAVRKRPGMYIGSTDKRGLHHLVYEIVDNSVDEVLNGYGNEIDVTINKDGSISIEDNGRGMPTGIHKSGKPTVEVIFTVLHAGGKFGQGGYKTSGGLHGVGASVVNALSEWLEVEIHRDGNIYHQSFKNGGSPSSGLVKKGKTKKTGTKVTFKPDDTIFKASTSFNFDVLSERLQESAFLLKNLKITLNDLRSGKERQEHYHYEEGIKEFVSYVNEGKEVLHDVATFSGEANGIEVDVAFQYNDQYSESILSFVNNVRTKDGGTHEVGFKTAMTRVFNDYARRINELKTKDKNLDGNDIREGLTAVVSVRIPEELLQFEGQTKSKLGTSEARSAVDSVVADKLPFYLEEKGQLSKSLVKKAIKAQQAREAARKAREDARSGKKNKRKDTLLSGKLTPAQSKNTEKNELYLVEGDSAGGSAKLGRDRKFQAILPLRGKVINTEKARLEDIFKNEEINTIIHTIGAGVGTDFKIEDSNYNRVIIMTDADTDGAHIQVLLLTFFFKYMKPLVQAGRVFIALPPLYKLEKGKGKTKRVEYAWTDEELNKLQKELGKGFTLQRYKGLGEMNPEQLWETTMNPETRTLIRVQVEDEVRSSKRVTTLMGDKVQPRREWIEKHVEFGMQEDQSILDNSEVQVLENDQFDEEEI
T3 sequence (P0C1U9 whole entry): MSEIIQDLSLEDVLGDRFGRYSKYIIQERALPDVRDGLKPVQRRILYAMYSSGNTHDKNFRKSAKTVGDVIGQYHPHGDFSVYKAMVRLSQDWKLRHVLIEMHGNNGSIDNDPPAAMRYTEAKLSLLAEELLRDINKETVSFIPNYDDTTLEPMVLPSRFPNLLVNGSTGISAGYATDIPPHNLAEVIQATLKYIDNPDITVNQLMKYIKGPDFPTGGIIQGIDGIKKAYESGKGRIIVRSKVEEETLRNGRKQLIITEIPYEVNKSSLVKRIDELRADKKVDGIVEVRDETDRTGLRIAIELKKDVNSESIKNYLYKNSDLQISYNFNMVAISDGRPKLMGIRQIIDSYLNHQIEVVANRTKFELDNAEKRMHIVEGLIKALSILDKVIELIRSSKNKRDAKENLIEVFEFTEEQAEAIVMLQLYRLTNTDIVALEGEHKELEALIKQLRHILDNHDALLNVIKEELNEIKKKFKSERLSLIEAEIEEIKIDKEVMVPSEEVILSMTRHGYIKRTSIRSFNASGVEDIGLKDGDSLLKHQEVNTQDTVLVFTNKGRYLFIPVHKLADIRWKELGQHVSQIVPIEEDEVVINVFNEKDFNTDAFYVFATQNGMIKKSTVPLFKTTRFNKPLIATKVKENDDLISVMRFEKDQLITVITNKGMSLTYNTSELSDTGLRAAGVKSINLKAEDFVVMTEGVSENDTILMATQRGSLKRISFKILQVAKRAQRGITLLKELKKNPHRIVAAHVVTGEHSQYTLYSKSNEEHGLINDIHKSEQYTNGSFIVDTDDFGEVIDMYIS
T1 sequence (P0AES4 whole entry, one chain of several): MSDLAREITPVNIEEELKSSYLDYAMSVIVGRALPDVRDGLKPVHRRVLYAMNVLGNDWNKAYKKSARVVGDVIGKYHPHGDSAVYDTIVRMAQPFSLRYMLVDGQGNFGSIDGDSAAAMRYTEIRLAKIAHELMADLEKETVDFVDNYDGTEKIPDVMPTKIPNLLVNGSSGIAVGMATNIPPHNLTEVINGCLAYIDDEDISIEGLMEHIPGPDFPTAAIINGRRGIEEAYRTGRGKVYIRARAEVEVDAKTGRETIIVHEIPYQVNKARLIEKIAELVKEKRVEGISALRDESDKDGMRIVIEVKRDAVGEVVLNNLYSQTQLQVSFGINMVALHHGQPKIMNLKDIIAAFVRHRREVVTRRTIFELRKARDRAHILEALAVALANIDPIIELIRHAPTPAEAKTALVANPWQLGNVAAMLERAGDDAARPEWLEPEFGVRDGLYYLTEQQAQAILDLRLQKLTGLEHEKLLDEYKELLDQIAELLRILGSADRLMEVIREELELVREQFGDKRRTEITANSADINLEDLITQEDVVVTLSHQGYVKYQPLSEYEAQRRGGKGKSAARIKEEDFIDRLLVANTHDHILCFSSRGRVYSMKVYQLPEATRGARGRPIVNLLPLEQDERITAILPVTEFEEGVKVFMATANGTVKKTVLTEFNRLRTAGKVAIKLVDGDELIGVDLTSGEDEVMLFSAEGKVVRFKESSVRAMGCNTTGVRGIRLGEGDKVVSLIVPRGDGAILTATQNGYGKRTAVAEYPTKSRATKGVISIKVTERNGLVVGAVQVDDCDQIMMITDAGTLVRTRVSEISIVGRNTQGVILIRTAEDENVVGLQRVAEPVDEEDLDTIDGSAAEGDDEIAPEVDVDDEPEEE
T2 sequence (P20083 whole entry): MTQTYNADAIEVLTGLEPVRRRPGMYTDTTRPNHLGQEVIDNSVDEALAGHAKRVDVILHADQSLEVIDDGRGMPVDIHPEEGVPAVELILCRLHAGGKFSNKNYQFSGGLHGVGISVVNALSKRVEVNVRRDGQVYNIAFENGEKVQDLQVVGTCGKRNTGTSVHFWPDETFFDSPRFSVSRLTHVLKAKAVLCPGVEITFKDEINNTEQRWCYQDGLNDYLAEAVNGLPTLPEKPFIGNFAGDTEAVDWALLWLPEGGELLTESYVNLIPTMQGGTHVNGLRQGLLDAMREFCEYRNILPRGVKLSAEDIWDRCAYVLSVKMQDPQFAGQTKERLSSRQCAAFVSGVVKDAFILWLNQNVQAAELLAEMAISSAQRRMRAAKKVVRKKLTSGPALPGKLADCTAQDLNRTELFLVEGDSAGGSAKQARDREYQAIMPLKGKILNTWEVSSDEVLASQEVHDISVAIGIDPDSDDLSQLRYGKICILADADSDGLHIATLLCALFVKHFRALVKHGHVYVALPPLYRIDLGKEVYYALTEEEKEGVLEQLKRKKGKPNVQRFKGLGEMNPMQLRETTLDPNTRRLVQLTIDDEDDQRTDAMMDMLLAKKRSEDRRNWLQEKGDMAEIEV
T2 sequence (P0AFI2 whole entry): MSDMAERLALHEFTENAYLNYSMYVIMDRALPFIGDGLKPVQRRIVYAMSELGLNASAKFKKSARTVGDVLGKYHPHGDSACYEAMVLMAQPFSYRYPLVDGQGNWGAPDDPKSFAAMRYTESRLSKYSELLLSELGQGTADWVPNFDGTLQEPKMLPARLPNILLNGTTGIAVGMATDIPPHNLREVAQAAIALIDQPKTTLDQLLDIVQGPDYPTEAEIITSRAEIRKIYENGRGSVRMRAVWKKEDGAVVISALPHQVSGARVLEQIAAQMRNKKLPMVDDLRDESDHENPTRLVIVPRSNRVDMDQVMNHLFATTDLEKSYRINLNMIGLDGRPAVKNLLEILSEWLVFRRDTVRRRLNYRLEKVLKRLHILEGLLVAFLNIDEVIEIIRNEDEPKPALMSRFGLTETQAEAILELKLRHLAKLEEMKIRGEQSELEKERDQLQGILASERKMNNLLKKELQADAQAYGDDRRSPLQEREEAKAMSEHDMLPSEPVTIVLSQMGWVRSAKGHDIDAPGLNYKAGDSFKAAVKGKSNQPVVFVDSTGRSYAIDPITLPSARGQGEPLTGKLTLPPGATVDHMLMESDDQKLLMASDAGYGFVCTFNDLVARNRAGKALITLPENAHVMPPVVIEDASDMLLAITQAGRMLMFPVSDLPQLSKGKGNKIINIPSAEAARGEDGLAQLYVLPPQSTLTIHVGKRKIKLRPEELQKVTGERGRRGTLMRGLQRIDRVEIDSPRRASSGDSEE

Compound | inhibition at 50 µM (E. coli DNA gyrase; E. coli, n/a = not active) | inhibition at 50 µM (E. coli Topoisomerase IV; [2]) | inhibition at 50 µM [1, 3] | inhibition at 50 µM (S. aureus DNA gyrase; S. aureus, n/a = not active) | IC50 (E. coli DNA gyrase) | IC50 (E. coli Topoisomerase IV) | IC50 [1, 4] | inhibition at 50 µM ([1]; read-out: % inhibition Topo IV) | IC50 (S. aureus DNA gyrase) | inhibition at 200 µM (E. coli DNA gyrase; E. coli, conc. 200 μM, n/a = not active) | inhibition at 200 µM (E. coli Topoisomerase IV; E. coli, conc. 200 μM, n/a = not active, read-out: % inhibition Topo IV) | IC50 [1] | inhibition at 200 µM ([1]; S. aureus, conc. 200 μM, n/a = not active, read-out: % inhibition Topo IV) | inhibition at 200 µM (S. aureus DNA gyrase; S. aureus, conc. 200 μM, n/a = not active)
O=c1cc(NCCNC2CCN(c3nccc4ccc(F)cc34)CC2)c2cc(F)ccc2o1 [Compound 131, 6-fluoro-4-[(2-{[1-(7-fluoroisoquinolin-1-yl)piperidin-4-yl]amino}ethyl)amino]-2H-chromen-2-one] | 100% | 100% | 78% | 81% |  |  |  |  |  |  |  |  |  | 
O=CNC(CN1CCN(c2nccc3ccc(F)cc23)CC1)c1nc2c(=O)oc3ccccc3c2[nH]1 (stereo not shown) [Compound 159, N-{2-[4-(7-fluoroisoquinolin-1-yl)piperazin-1-yl]-1-(4-oxo-1,4-dihydro[1]benzopyrano[3,4-d]imidazol-2-yl)ethyl}formamide hydrochloride] | 94% | 98% |  | 100% | 1650 nM | 1040 nM | 1090 nM | 100% | 510 nM |  |  |  |  | 
O=c1cc(NCCCN2CCN(c3nccc4ccccc34)CC2)c2ccccc2o1 [Compound 44, 4-({3-[4-(isoquinolin-1-yl)piperazin-1-yl]propyl}amino)-2H-chromen-2-one] |  |  |  |  | 500 nM | 10000 nM |  |  | 14000 nM | 100% | 100% | 90000 nM | 65% | 100%
COc1ccc2ncc(F)c(N3CCC(NCc4cc5c([nH]4)c(=O)oc4ccc(F)cc45)CC3)c2n1 [Compound 192, 8-fluoro-2-({[1-(3-fluoro-6-methoxy-1,5-naphthyridin-4-yl)piperidin-4-yl]amino}methyl)[1]benzopyrano[3,4-b]pyrrol-4(3H)-one] | 70% | 37% | 76% | 88% | 80 nM | 130 nM |  |  | 17 nM |  |  | 100 nM |  | 
COC1CN(c2nccc3ccc(F)cc23)CCC1NCc1cc2c(=O)oc3ccccc3c2[nH]1 (stereo not shown) [Compound 171, 2-({[1-(7-fluoroisoquinolin-1-yl)-3-methoxypiperidin-4-yl]amino}methyl)[1]benzopyrano[4,3-b]pyrrol-4(1H)-one] | 93% | 97% | 72% | 100% |  |  |  |  |  |  |  |  |  | 
O=c1nc(NCC(O)CN2CCN(c3nc(F)cc4ccc(OC(F)(F)F)cc34)CC2)c2cc(F)ccc2o1 (stereo not shown) [Compound 155, 6-fluoro-4-[(3-{4-[3-fluoro-7-(trifluoromethoxy)isoquinolin-1-yl]piperazin-1-yl}-2-hydroxypropyl)amino]-2H-1,3-benzoxazin-2-one] | 60% | 0% | 50% | 50% | 6310 nM |  | 7210 nM |  | 8740 nM |  |  |  |  | 
COc1ccc2ncc(C#N)c(N3CCC(NCc4cc5c([nH]4)c(=O)oc4ccc(F)cc45)CC3)c2n1 [Compound 195, 4-(4-{[(8-fluoro-4-oxo-3,4-dihydro[1]benzopyrano[3,4-b]pyrrol-2-yl)methyl]amino}piperidin-1-yl)-6-methoxy-1,5-naphthyridine-3-carbonitrile] | 99% | 100% | 100% | 100% | 140 nM | 300 nM |  |  | 100 nM |  |  | 100 nM |  | 
O=c1nc(NCC(O)CN2CCN(c3nccc4ccc(F)cc34)CC2)c2cc(F)ccc2o1 (stereo not shown) [Compound 148, 6-fluoro-4-({3-[4-(7-fluoroisoquinolin-1-yl)piperazin-1-yl]-2-hydroxypropyl}amino)-2H-1,3-benzoxazin-2-one] | 96% | 100% | 100% | 100% | 420 nM | 120 nM | 50 nM |  | 24 nM |  |  |  |  | 
